Test results published in patent US20220241331A1, “IDENTIFICATION OF RECURRENT MUTATED NEOPEPTIDES” (Yeda Research and Development Co. Ltd., priority 2019, published 2022).
Values belong to the molecule of their own block, whether it stands above or below them.

Key:
135TIL = assay: IFNγ release ELISA, 135TIL co-incubated with peptide-pulsed A*01:01 B-cells; type: cell-based, human; conditions: for IFN-γ release from TIL stimulated by pulsed peptide: peptide-pulsed A*01:01 EBV-transformed B cells, overnight co-incubation, vs non-pulsed B-cell control (FIG. 3A); for TIL IFNγ response in peptide titration: titrated concentrations of pulsed peptide (FIG. 3B)
Protocol: (§1) IFNγ's release from TIL, as measured in an enzyme-linked immunosorbent assay (ELISA), was used to quantify reactivity. Synthetic pure (>95% purity) mutant ([…] (SEQ ID NO: 1)) and wild-type ([…] (SEQ ID NO: 2)) peptides were purchased from GenScript and dissolved in DMSO.
(§2) EBV-transformed B-cells bearing HLA allele A*01:01 were used for peptide pulsing. A B-cell suspension at 1×10^6 cells/ml was incubated with the peptide of choice, at the desired concentration (0.001-10 μg/ml), for 4 h in a 37° C., 5% CO2, humidified incubator. The DMSO volume was kept at 1% in all samples. For the no-peptide control, DMSO devoid of peptides was added. The B-cells were washed in PBS three times before proceeding to the co-incubation with TILs. TILs were co-cultured with either cognate melanoma or EBV-transformed B-cells at a 1:1 ratio (10^5-2×10^6 cells) and incubated overnight in a 37° C., 5% CO2, humidified incubator. The soluble IFNγ secreted from TILs was quantified from the co-culture supernatant using Biolegend Human IFN-γ ELISA MAX Deluxe (Cat#430106). All experiments were conducted in biological triplicates.
(§3) To evaluate the immunogenicity of the NRAS.Q61K neo-antigen, two melanoma cell lines that harbor the HLA-A*01:01/NRAS.Q61K combination, 17T and 135T were analyzed. Synthetic mutant (ILDTAG ? EEY-SEQ ID NO: 1) or wild-type (ILDTAG ? EEY-SEQ ID NO: 2) peptide was pulsed on either one of three commercial, A*01:01 expressing, Epstein bar virus (EBV)-transformed B cells^35. No other HLA class-I allele was shared among all three B-cell lines, and no other HLA class-I allele expressed by these cell lines was predicted to bind the neo-peptide at hand (Table 2).
(§4) The peptide-pulsed B-cells were co-incubated with either 17TIL or 135TIL overnight, followed by measurement of peptide stimulated interferon-γ (IFN-γ) release from the TIL by means of enzyme-linked immunosorbent assay (ELISA). […] Peptide titration assays further confirmed specific TIL reactivity towards the HLA-A*01:01/NRAS.Q61K neo-antigen, for both 17TIL and 135TIL (FIG. 3B).

17TIL = assay: IFNγ release ELISA, 17TIL co-incubated with peptide-pulsed A*01:01 B-cells; type: cell-based, human; conditions: for IFN-γ release from TIL stimulated by pulsed peptide: peptide-pulsed A*01:01 EBV-transformed B cells, overnight co-incubation, vs non-pulsed B-cell control (FIG. 3A); for TIL IFNγ response in peptide titration: titrated concentrations of pulsed peptide (FIG. 3B)
Protocol: as §1, §2, §3, §4

[1] = molecular target: T1, RAS wild-type (NRAS) peptide on HLA-A*01:01 (human); assay: cytokine release
T1 peptide: ILDTAGQEEY
Protocol: (§5) Peripheral mononuclear cells (PBMC) from healthy donors were electroporated with in-vitro transcribed mRNA, coding for TCRα/TCRβ combinations of interest. […] (A) Flow cytometry plots for electroporated PBMC. Top row—mouse TCRβ constant region staining. Bottom row—[sequence]/A*01:01 tetramer staining. Cells were stained at 6-30 hours post electroporation. (B) IFNγ release from electroporated donor PBMC as measured in ELISA. A*01:01+ B-LCL IHW01161 was pulsed with either wild-type or mutant versions of the peptide at 10 μM prior to overnight co-incubation with electroporated PBMC. Supernatants were diluted 1:20 prior to assay performance to avoid saturation.

[2] = molecular target: T2, NRAS Q61K (RAS.Q61K) peptide on HLA-A*01:01 (human); assay: multimer staining
T2 peptide: ILDTAGKEEY
Protocol: as §5

[3] = molecular target: T2, NRAS Q61K (RAS.Q61K) peptide on …; assay: cytokine release
Protocol: as §5

Molecule: ILDTAGKEEY [RAS.Q61-derived neo-peptide, variant Q61K; presented on HLA-A*01:01]
- minimum peptide concentration with significant IFNγ response (135TIL; peptide titration (FIG. 3B)): 1 ng/mL
- IFN-γ release from TIL stimulated by pulsed peptide (135TIL): stimulated a clear interferon-γ (IFN-γ) signal
- TIL IFNγ response in peptide titration (135TIL): clear dose-response relationship
- minimum peptide concentration with significant IFNγ response (17TIL; peptide titration (FIG. 3B)): 10 ng/mL
- IFN-γ release from TIL stimulated by pulsed peptide (17TIL): stimulated a clear interferon-γ (IFN-γ) signal
- TIL IFNγ response in peptide titration (17TIL): clear dose-response relationship

Molecule: ILDTAGQEEY [WT RAS.Q61-derived peptide, reference compound]
- IFN-γ release from TIL stimulated by pulsed peptide (135TIL): did not elicit significant increase over a non-pulsed B-cell control
- TIL IFNγ response in peptide titration (135TIL): non-significant and did not depend on peptide concentration
- IFN-γ release from TIL stimulated by pulsed peptide (17TIL): did not elicit significant increase over a non-pulsed B-cell control
- TIL IFNγ response in peptide titration (17TIL): non-significant and did not depend on peptide concentration

- binding result [1]: no recognition
- binding result [2]: recognises
B1: N17.2 (TCR)
alpha TRAV5 TRAJ9 CDR3: CAESSGGGFKTIF
beta TRBV6-6 TRBJ2-7 CDR3: CASSTPGPSAYEQYF

- binding result [1]: no recognition
- binding result [2]: recognises
B2: N135.1 (TCR)
alpha TRAV19 TRAJ39 CDR3: CALSESHNNAGNMLTF
beta TRBV6-1 TRBJ1-1 CDR3: CAASQNTEAFF

- binding result [1]: no recognition
- binding result [2]: recognises
B3: N17.3 (TCR)
alpha TRAV19 TRAJ17 CDR3: CALSESGDAAGNKLTF
beta TRBV6-1 TRBJ1-1 CDR3: CAEGENTEAFF

- binding result [3]: recognises
B4: NA135.1/NB17.3 (TCR)
alpha TRAV19 TRAJ39 CDR3: CALSESHNNAGNMLTF
beta TRBV6-1 TRBJ1-1 CDR3: CAEGENTEAFF
